Holding throughout (type): cell-based
Data set [1] in a line: Cytotoxicity assay in MT-4 cells. The conditions noted are these: human; uninfected MT-4 cells, 5 days incubation, Cell Titer Glo. The method, then: Cytotoxicity Assay in MT-4 Cells Assays were performed as above except uninfected MT-4 cells were added to each well containing test compound. In addition, 10 μM puromycin was added to the last column of each assay plate to assess a base level of cytotoxicity.
Background: In ATP-based viability assays light output follows the ATP content of the culture.

Another data set concerns HIV-1 (IIIB). Nature of the data set: Antiviral assay in MT-4 cells. The conditions noted are these: Human immunodeficiency virus 1, MT4, 120 h; replication of HIV-1 (IIIB) in MT-4 cells, 5 days incubation, Cell Titer Glo. The method, then:
Example 24: HIV MT-4 Antiviral and Cytotoxicity Assay
Antiviral Assay in MT-4 Cells
Compounds were tested in a high-throughput 384-well assay format for their ability to inhibit the replication of HIV-1 (IIIB) in MT-4 cells. Compounds were serially diluted (1:3) in DMSO on 384-well polypropylene plates and further diluted 200-fold into complete RPMI media (10% FBS, 1% P/S) using the Biotek Micro Flow and Labcyte ECHO acoustic dispenser. Each plate contained up to 8 test compounds, with negative (No Drug Control) and 5 μM AZT positive controls. MT-4 cells were pre-infected with 10 μL of either RPMI (mock-infected) or a fresh 1:250 dilution of HIV-1 IIIB concentrated virus stock. Infected and uninfected MT-4 cells were further diluted in complete RPMI media and added to each plate using a Micro Flow dispenser. After 5 days incubation in a humidified and temperature controlled incubator (37° C.), Cell Titer Glo (Promega) was added to the assay plates and chemiluminescence read using an Envision plate-reader. EC50 values were defined as the compound concentration that causes a 50% decrease in luminescence signal, and were calculated using a sigmoidal dose-response model to generate curve fits.

The test system of another data set is pLai RLuc reporter virus. Put plainly: HIV MT-4 serum shift antiviral reporter assay. The conditions noted are these: Human immunodeficiency virus 1, MT4, 72 h. The method, then: Example 25: HIV MT-4 Serum Shift Antiviral Reporter Assay
To quantify the amount of protein binding to human serum, compounds were serially diluted (1:3) in DMSO and acoustically transferred onto 384-well assay plates via a Labcyte ECHO robot. Each plate contained up to 8 test compounds, including negative and positive controls, (DMSO, 5 μM AZT respectively). Assay plates were prepared in duplicate, and tested in either CCM (cell culture media) or HS/CCM (human serum/cell culture media). MT-4 cells were first pre-infected with pLai RLuc reporter virus for 2 h at 37° C., then further diluted in either CCM (RPMI media, 10% FBS, 1% P/S) or HS/CCM (RPMI media, 10% FBS, 50% HS, 1% P/S), and subsequently added to each plate using a Biotek Micro Flow dispenser. After a 72-h incubation in a humidified and temperature controlled incubator (37° C.), Renilla Glo (Promega) was added to all assay plates and chemiluminescence read using an Envision plate-reader. EC50 values were defined as the compound concentration that causes a 50% decrease in luminescence signal, and were calculated using a sigmoidal dose-response model to generate curve fits. To determine the amount of protein binding, EC50 fold shifts (or EC50 shifts) were calculated by dividing EC50 (HS/CCM)/EC50 (CCM).
In general terms: A reporter such as luciferase makes a cellular process visible.

Where [2] appears, read: read-out: Antiviral Serum Shift RLuc 50% HS.
[3] abbreviates: read-out: Antiviral Serum Shift RLuc CCM.

Like-named read-outs stand apart in the source and are kept apart here.

Compound `O=C(NCc1c(F)cc(F)cc1F)c1c2n3c(c(O)c1=O)C(=O)N1CCCC[C@@]3(CC2CO)C1` (stereo partly drawn) [Compound 18, (6aR)-11-hydroxy-8-(hydroxymethyl)-1,10-dioxo-N-(2,4,6-trifluorobenzyl)-1,3,4,5,6,7,8,10-octahydro-2,6a-methano[1,4]diazonino[9,1,2-cd]indolizine-9-carboxamide] returned a cytotoxic concentration (CC50) at 5 days in data set [1] of 25200 nM. In addition, the EC50 worked out at 10.7 nM in the data set on HIV-1 (IIIB), 0.97 nM in the data set on pLai RLuc reporter virus (setting [2]) and 0.87 nM with pLai RLuc reporter virus (setting [3]).

Consider `CO[C@@H]1C[C@@]23CCCCN(C2)C(=O)c2c(O)c(=O)c(C(=O)NCc4c(F)cc(F)cc4F)c1n23` (single isomer, unassigned) [Compound 12-1], for which it took 9690 nM to reach half-maximal cytotoxicity in data set [1] (CC50 at 5 days). Moreover, the EC50 came to 1.54 nM in the data set on HIV-1 (IIIB), 16.9 nM in the data set with pLai RLuc reporter virus (setting [2]) and 0.77 nM in the data set with pLai RLuc reporter virus (setting [3]).

Take `O=C(NCc1c(F)cc(F)cc1F)c1c2n3c(c(O)c1=O)C(=O)N1CCCC[C@@]3(C1)[C@@H](O)[C@@H]2O` (single isomer, unassigned) [Compound 11-3]: the CC50 at 5 days in data set [1] was found to be 50000 nM. The results for the EC50 in the data set with HIV-1 (IIIB), with pLai RLuc reporter virus (setting [2]) and in the data set on pLai RLuc reporter virus (setting [3]) were 5.28 nM, 7.57 nM and 4.08 nM, respectively.

`CO[C@H]1C[C@]23CCCCN(C2)C(=O)c2c(O)c(=O)c(C(=O)NCc4c(F)cc(F)cc4F)c1n23` (single isomer, unassigned) [Compound 12-2] displayed a CC50 at 5 days in data set [1] of 11100 nM. Moreover, the EC50 worked out at 3.26 nM in the data set on HIV-1 (IIIB), 98.4 nM in the data set on pLai RLuc reporter virus (setting [2]) and 1.14 nM with pLai RLuc reporter virus (setting [3]).

Turning to `O=C(NCc1c(F)cc(F)cc1F)c1c2n3c(c(O)c1=O)C(=O)N1CCCC[C@@]3(C[C@H]2O)C1` (single isomer, unassigned) [Compound 9-2], in data set [1], the CC50 at 5 days turned out to be 5170 nM. For the same compound, the EC50 with HIV-1 (IIIB) was 1.23 nM; with pLai RLuc reporter virus (setting [2]) it was 34.1 nM; in the data set on pLai RLuc reporter virus (setting [3]) it was 0.347 nM.

For `O=C(NCc1ccc(F)cc1F)c1c2n3c(c(O)c1=O)C(=O)N1CCCC[C@@]3(CC2)C1` [Compound 3, (6aR)—N-(2,4-difluorobenzyl)-11-hydroxy-1,10-dioxo-1,3,4,5,6,7,8,10-octahydro-2,6a-methano[1,4]diazonino[9,1,2-cd]indolizine-9-carboxamide], in data set [1], half-maximal cytotoxicity (CC50 at 5 days) was put at 4940 nM. For the same compound, the EC50 came out at 1.78 nM with HIV-1 (IIIB), 3.11 nM in the data set with pLai RLuc reporter virus (setting [2]) and 0.175 nM in the data set with pLai RLuc reporter virus (setting [3]).

Consider `O=C(NCc1c(F)cc(F)cc1F)c1c2n3c(c(O)c1=O)C(=O)N1CCCC[C@]3(C[C@@H]2O)C1` (single isomer, unassigned) [Compound 9-3], for which, in data set [1], the 50% cytotoxic concentration (CC50) at 5 days is 6310 nM. Also, the EC50 came to 1.06 nM in the data set on HIV-1 (IIIB), 28.5 nM with pLai RLuc reporter virus (setting [2]) and 0.384 nM in the data set on pLai RLuc reporter virus (setting [3]).

Compound `O=C(NCc1ccc(F)c(Cl)c1F)c1c2n3c(c(O)c1=O)C(=O)N1CCCC[C@@]3(C[C@@H]2O)C1` (single isomer, unassigned) [Compound 14-2] had a 50% cytotoxic concentration (CC50) at 5 days in data set [1] of 2110 nM. Further, the EC50 worked out at 0.73 nM in the data set on HIV-1 (IIIB), 11 nM in the data set on pLai RLuc reporter virus (setting [2]) and 0.41 nM with pLai RLuc reporter virus (setting [3]).

Regarding `C[C@H]1C=CC[C@]23C[C@H](O)c4c(C(=O)NCc5c(F)cc(F)cc5F)c(=O)c(O)c(n42)C(=O)N1C3` (single isomer, unassigned) [Compound 21-2], in data set [1], half-maximal cytotoxicity (CC50 at 5 days) was put at 5370 nM. Further, the results for the EC50 in the data set with HIV-1 (IIIB), with pLai RLuc reporter virus (setting [2]) and with pLai RLuc reporter virus (setting [3]) were 0.8 nM, 12 nM and 0.27 nM, respectively.

Regarding `O=C1c2c(O)c(=O)c(-c3nnc(Cc4c(F)cc(F)cc4F)s3)c3n2C2(CCCCN1C2)CC3` (centres unmarked) [Compound 7, 11-hydroxy-9-(5-(2,4,6-trifluorobenzyl)-1,3,4-thiadiazol-2-yl)-3,4,5,6,7,8-hexahydro-2,6a-methano[1,4]diazonino[9,1,2-cd]indolizine-1,10-dione], in data set [1], the CC50 at 5 days stood at 3800 nM. Further, the EC50 worked out at 3.8 nM in the data set on HIV-1 (IIIB), 60.8 nM with pLai RLuc reporter virus (setting [2]) and 0.997 nM in the data set on pLai RLuc reporter virus (setting [3]).

With `O=C(NCc1ccc(F)c(Cl)c1F)c1c2n3c(c(O)c1=O)C(=O)N1CCCC[C@@]3(C[C@H]2O)C1` (single isomer, unassigned) [Compound 14-1], the CC50 at 5 days in data set [1] amounted to 2310 nM. The EC50 in the data set on HIV-1 (IIIB) was found to be 1.1 nM; with pLai RLuc reporter virus (setting [2]), 26 nM; in the data set with pLai RLuc reporter virus (setting [3]), 0.22 nM.

As usually defined, the CC50 is the concentration at which the toxic effect on the cells reaches its halfway point. Read a high CC50 as lower toxicity to the cells.

These data come from patent US12122776B2, “Tetracyclic compounds and uses thereof” (Gilead Sciences, Inc., priority 2020, dated 2024).
